Tests used:
[1] = system: TRZAWR (Wheat, Winter, cv Riband); assay: Postemergence herbicidal evaluation; format: in vivo, Triticum aestivum; settings: postemergence
Outline: (§1)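 First, seedlings were raised for around two weeks. Next, test material in 50/50 acetone/water containing 0.5% TWEEN 20 was sprayed through a nozzle at 40 psi, equivalent to about 0.0156–0.500 kg/ha. Finally, after 4–5 weeks in the greenhouse, plants were rated 0–9.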

[2] = system: ECHORC (Watergrass (Calif.)); assay: Preemergence weed control under flooded paddy conditions; format: in vivo, Echinochloa oryzoides; settings: rated 3-4 weeks after treatment
Outline: (§2)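 Flooded-pot preemergence screen with silt loam and seeds in the upper 0.5 cm. Dose about 0.0313 to 0.500 kg/ha, delivered into flood water; visual 0-9 score after 3 to 4 weeks.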

[3] = system: ECHORC (Watergrass (Calif.)); assay: Postemergence weed control under flooded paddy conditions; format: in vivo, Echinochloa oryzoides; settings: postemergence weeds, rated 3 to 4 weeks after treatment
Outline: (§3)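 Containers holding 3–5 cm weeds and rice at 1.5–2.5 leaves are flooded to 1.5–3 cm above soil. Compound in 50/50 v/v aqueous/acetone is then added directly to the water, about 0.0313–0.500 kg/ha. Plants are kept in the greenhouse and rated 0–9 visually at 3–4 weeks.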

[4] = system: SAGPY (Arrowhead (Pygmaea)); assay: as above; format: in vivo, Sagittaria pygmaea; settings: postemergence weeds, rated 3 to 4 weeks after treatment
Outline: as §3

[5] = system: CYPIR (Rice Flatsedge); assay: Preemergence weed control under flooded paddy conditions; format: in vivo, Cyperus iria; settings: rated 3-4 weeks after treatment
Outline: as §2

[6] = system: IPOHE (Morningglory, Ivyleaf); assay: Postemergence herbicidal evaluation; format: in vivo, Ipomoea hederacea; settings: postemergence
Outline: as §1

[7] = system: ABUTH (Velvetleaf); assay: Preemergence herbicidal evaluation; format: in vivo, Abutilon theophrasti; settings: rated 4-5 weeks after treatment
Outline: (§4)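 Greenhouse preemergence test: seed-soil mix sown on ~1 inch soil; aqueous acetone spray at equivalent of ~0.0156–0.500 kg/ha; greenhouse-held and watered; scored 0–9 visually at 4–5 weeks.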

[8] = system: ZEAMX (Corn, Field); assay: Preemergence herbicidal evaluation; format: in vivo, Zea mays; settings: rated 4-5 weeks after treatment
Outline: as §4

[9] = system: SETVI (Foxtail, Green); assay: Preemergence herbicidal evaluation; format: in vivo, Setaria viridis; settings: rated 4-5 weeks after treatment
Outline: as §4

[10] = system: SETVI (Foxtail, Green); assay: Postemergence herbicidal evaluation; format: in vivo, Setaria viridis; settings: postemergence
Outline: as §1

[11] = system: IPOHE (Morningglory, Ivyleaf); assay: Preemergence herbicidal evaluation; format: in vivo, Ipomoea hederacea; settings: rated 4-5 weeks after treatment
Outline: as §4

[12] = system: ECHCG (Barnyardgrass); assay: Preemergence herbicidal evaluation; format: in vivo, Echinochloa crus-galli; settings: rated 4-5 weeks after treatment
Outline: as §4

[13] = system: GALAP (Galium); assay: Postemergence herbicidal evaluation; format: in vivo, Galium aparine; settings: postemergence
Outline: as §1

## COC(=O)[C@H](Cc1ccc([N+](=O)[O-])cc1)N1C(=O)CSC1=Nc1cc(-n2c(=O)cc(C(F)(F)F)n(C)c2=O)c(F)cc1Cl [Compound 78, Methyl 2-{{2-chloro-5-[3,6-dihydro-3-methyl-2,6-dioxo-4-(trifluoromethyl)-1(2H)-pyrimidinyl]-4-fluorophenyl}imino}-4-oxo-α-(p-nitrobenzyl)-3-thiazolidineacetate, L-]
[1]; rate 0.0158 kg/ha
  TRZAWR herbicidal rating: 3.0
[1]; rate 0.0315 kg/ha
  TRZAWR herbicidal rating: 3.5
[1]; rate 0.0630 kg/ha
  TRZAWR herbicidal rating: 3.5
[2]; 0.0313 kg/ha
  ECHORC herbicidal effect rating: 7.0
[2]; 0.0625 kg/ha
  ECHORC herbicidal effect rating: 7.0
[2]; 0.1250 kg/ha
  ECHORC herbicidal effect rating: 9.0
[2]; 0.2500 kg/ha
  ECHORC herbicidal effect rating: 9.0
[3]; Rate 0.0313 kg/ha
  Herbicidal rating ECHORC: 7.0
[3]; Rate 0.0625 kg/ha
  Herbicidal rating ECHORC: 7.0
[3]; Rate 0.1250 kg/ha
  Herbicidal rating ECHORC: 9.0
[3]; Rate 0.2500 kg/ha
  Herbicidal rating ECHORC: 9.0
[4]; Rate 0.0313 kg/ha
  Herbicidal rating SAGPY: 0.0
[4]; Rate 0.0625 kg/ha
  Herbicidal rating SAGPY: 0.0
[4]; Rate 0.1250 kg/ha
  Herbicidal rating SAGPY: 2.0
[4]; Rate 0.2500 kg/ha
  Herbicidal rating SAGPY: 4.0
[5]; 0.0313 kg/ha
  CYPIR herbicidal effect rating: 5.0
[5]; 0.0625 kg/ha
  CYPIR herbicidal effect rating: 5.0
[5]; 0.1250 kg/ha
  CYPIR herbicidal effect rating: 6.0
[5]; 0.2500 kg/ha
  CYPIR herbicidal effect rating: 9.0
[6]; rate 0.0158 kg/ha
  IPOHE herbicidal rating: 9.0
[6]; rate 0.0315 kg/ha
  IPOHE herbicidal rating: 9.0
[6]; rate 0.0630 kg/ha
  IPOHE herbicidal rating: 9.0
[7]; rate 0.0156 kg/ha
  Preemergence herbicidal rating ABUTH: 0.0
[7]; rate 0.0313 kg/ha
  Preemergence herbicidal rating ABUTH: 0.0
[7]; rate 0.0625 kg/ha
  Preemergence herbicidal rating ABUTH: 0.0
[7]; rate 0.1250 kg/ha
  Preemergence herbicidal rating ABUTH: 2.0
[7]; rate 0.2500 kg/ha
  Preemergence herbicidal rating ABUTH: 9.0
[8]; rate 0.0156 kg/ha
  Preemergence herbicidal rating ZEAMX: 0.0
[8]; rate 0.0313 kg/ha
  Preemergence herbicidal rating ZEAMX: 0.0
[8]; rate 0.0625 kg/ha
  Preemergence herbicidal rating ZEAMX: 0.0
[8]; rate 0.1250 kg/ha
  Preemergence herbicidal rating ZEAMX: 0.0
[8]; rate 0.2500 kg/ha
  Preemergence herbicidal rating ZEAMX: 1.0
[9]; rate 0.0156 kg/ha
  Preemergence herbicidal rating SETVI: 0.0
[9]; rate 0.0313 kg/ha
  Preemergence herbicidal rating SETVI: 0.0
[9]; rate 0.0625 kg/ha
  Preemergence herbicidal rating SETVI: 0.0
[9]; rate 0.1250 kg/ha
  Preemergence herbicidal rating SETVI: 0.0
[9]; rate 0.2500 kg/ha
  Preemergence herbicidal rating SETVI: 6.0
[10]; rate 0.0158 kg/ha
  SETVI herbicidal rating: 1.0
[10]; rate 0.0315 kg/ha
  SETVI herbicidal rating: 1.0
[10]; rate 0.0630 kg/ha
  SETVI herbicidal rating: 1.0
[11]; rate 0.0156 kg/ha
  Preemergence herbicidal rating IPOHE: 0.0
[11]; rate 0.0313 kg/ha
  Preemergence herbicidal rating IPOHE: 0.0
[11]; rate 0.0625 kg/ha
  Preemergence herbicidal rating IPOHE: 0.0
[11]; rate 0.1250 kg/ha
  Preemergence herbicidal rating IPOHE: 0.0
[11]; rate 0.2500 kg/ha
  Preemergence herbicidal rating IPOHE: 3.0
[12]; rate 0.0156 kg/ha
  Preemergence herbicidal rating ECHCG: 0.0
[12]; rate 0.0313 kg/ha
  Preemergence herbicidal rating ECHCG: 0.0
[12]; rate 0.0625 kg/ha
  Preemergence herbicidal rating ECHCG: 0.0
[12]; rate 0.1250 kg/ha
  Preemergence herbicidal rating ECHCG: 0.0
[12]; rate 0.2500 kg/ha
  Preemergence herbicidal rating ECHCG: 1.0
[13]; rate 0.0158 kg/ha
  GALAP herbicidal rating: 1.0
[13]; rate 0.0315 kg/ha
  GALAP herbicidal rating: 1.0
[13]; rate 0.0630 kg/ha
  GALAP herbicidal rating: 2.0

From patent US20020137929A1, “1 - (3-heterocyclylphenyl) isothiourea, -isourea, -guanidine and -amidine herbicidal agents” (Intellectual Property Department, BASF Aktiengesellschaft, priority 1998, published 2002)
